Measured values from patent US12077503B2, “Substituted cyclic amides and their use as herbicides” (FMC CORPORATION, priority 2015, dated 2024).

What was measured:
Type in all cases: in vivo
Kochia (Kochia scoparia) [1] = assay: Test A preemergence; conditions: Bassia scoparia, pre-emergence, 240 h, 0 to 100 scale where 0 is no effect and 100 is complete control, read-out: Kochia plant response rating; for pest or weed control at 31 g/ha: 31 g ai/ha, Preemergence; for pest or weed control at 125 g/ha: 125 g ai/ha, preemergence, visual injury rating, approximately 10 d
In short: (§1)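 Preemergence soil spray on seeded pots or post-emergence spray on 1–2 leaf plants, in loam–sand blend. Greenhouse ~10 d. Visual rating 0–100 against untreated plants.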

[2] = test system: barnyardgrass (Echinochloa crus-galli); assay: Test A preemergence; conditions: Echinochloa crus-galli, pre-emergence, 240 h, 0 to 100 scale where 0 is no effect and 100 is complete control, read-out: Barnyardgrass plant response rating; for pest or weed control at 31 g/ha: 31 g ai/ha, Preemergence; for pest or weed control at 125 g/ha: 125 g ai/ha, preemergence, visual injury rating, approximately 10 d
In short: as §1

[3] = test system: giant foxtail (Setaria faberii); assay: Test A preemergence; conditions: Setaria faberi, pre-emergence, 240 h, 0 to 100 scale where 0 is no effect and 100 is complete control, read-out: Foxtail, Giant plant response rating; for pest or weed control at 31 g/ha: 31 g ai/ha, Preemergence; for pest or weed control at 125 g/ha: 125 g ai/ha, preemergence, visual injury rating, approximately 10 d
In short: as §1

[4] = test system: pigweed (Amaranthus retroflexus); assay: Test A preemergence; conditions: Amaranthus retroflexus, pre-emergence, 240 h, 0 to 100 scale where 0 is no effect and 100 is complete control, read-out: Pigweed plant response rating; for pest or weed control at 31 g/ha: 31 g ai/ha, Preemergence; for pest or weed control at 125 g/ha: 125 g ai/ha, preemergence, visual injury rating, approximately 10 d
[5] = test system: ragweed (common ragweed, Ambrosia elatior); assay: Test A preemergence; conditions: Ambrosia artemisiifolia, pre-emergence, 240 h, 0 to 100 scale where 0 is no effect and 100 is complete control, read-out: Ragweed plant response rating; for pest or weed control at 31 g/ha: 31 g ai/ha, Preemergence; for pest or weed control at 125 g/ha: 125 g ai/ha, preemergence, visual injury rating, approximately 10 d
In short: as §1

[6] = test system: ryegrass, Italian (Italian ryegrass, Lolium multiflorum); assay: Test A preemergence; conditions: Lolium multiflorum, pre-emergence, 240 h, 0 to 100 scale where 0 is no effect and 100 is complete control, read-out: Ryegrass, Italian plant response rating; for pest or weed control at 31 g/ha: 31 g ai/ha, Preemergence; for pest or weed control at 125 g/ha: 125 g ai/ha, preemergence, visual injury rating, approximately 10 d
In short: as §1

[7] = test system: Galium (catchweed bedstraw, Galium aparine); assay: Test A postemergence; conditions: Galium, post-emergence, 240 h, Postemergence, read-out: Galium plant response rating (0 to 100 scale); for pest or weed control at 125 g/ha: 125 g ai/ha, visual rating about 10 d after treatment; for pest or weed control at 31 g/ha: 31 g ai/ha, 0 is no effect, 100 is complete control
In short: as §1

Kochia (Kochia scoparia) [8] = assay: Test A postemergence; conditions: Bassia scoparia, post-emergence, 240 h, Postemergence, read-out: Kochia plant response rating (0 to 100 scale); for pest or weed control at 125 g/ha: 125 g ai/ha, visual rating about 10 d after treatment; for pest or weed control at 31 g/ha: 31 g ai/ha, 0 is no effect, 100 is complete control
In short: as §1

[9] = test system: barnyardgrass (Echinochloa crus-galli); assay: Test A postemergence; conditions: Echinochloa crus-galli, post-emergence, 240 h, Postemergence; for pest or weed control at 125 g/ha: 125 g ai/ha, visual rating about 10 d after treatment, read-out: Barnyardgrass plant response rating (0 to 100 scale, 0 no effect, 100 complete control); for pest or weed control at 31 g/ha: 31 g ai/ha, 0 is no effect, 100 is complete control, read-out: Barnyardgrass plant response rating (0 to 100 scale)
In short: as §1

[10] = test system: blackgrass (Alopecurus myosuroides); assay: Test A postemergence; conditions: Alopecurus myosuroides, post-emergence, 240 h, Postemergence, read-out: Blackgrass plant response rating (0 to 100 scale); for pest or weed control at 125 g/ha: 125 g ai/ha, visual rating about 10 d after treatment; for pest or weed control at 31 g/ha: 31 g ai/ha, 0 is no effect, 100 is complete control
In short: as §1

corn (Zea mays) = assay: Test A postemergence; conditions: Zea mays, post-emergence, 240 h, Postemergence, read-out: Corn plant response rating (0 to 100 scale); for plant injury at 125 g/ha: 125 g ai/ha, visual rating about 10 d after treatment; for plant injury at 31 g/ha: 31 g ai/ha, 0 is no effect, 100 is complete control
In short: as §1

[11] = test system: giant foxtail (Setaria faberii); assay: Test A postemergence; conditions: Setaria faberi, post-emergence, 240 h, Postemergence, read-out: Foxtail, Giant plant response rating (0 to 100 scale); for pest or weed control at 125 g/ha: 125 g ai/ha, visual rating about 10 d after treatment; for pest or weed control at 31 g/ha: 31 g ai/ha, 0 is no effect, 100 is complete control
In short: as §1

[12] = test system: pigweed (Amaranthus retroflexus); assay: Test A postemergence; conditions: Amaranthus retroflexus, post-emergence, 240 h, Postemergence, read-out: Pigweed plant response rating (0 to 100 scale); for pest or weed control at 125 g/ha: 125 g ai/ha, visual rating about 10 d after treatment; for pest or weed control at 31 g/ha: 31 g ai/ha, 0 is no effect, 100 is complete control
In short: as §1

[13] = test system: ragweed (common ragweed, Ambrosia elatior); assay: Test A postemergence; conditions: Ambrosia artemisiifolia, post-emergence, 240 h, Postemergence, read-out: Ragweed plant response rating (0 to 100 scale); for pest or weed control at 125 g/ha: 125 g ai/ha, visual rating about 10 d after treatment; for pest or weed control at 31 g/ha: 31 g ai/ha, 0 is no effect, 100 is complete control
In short: as §1

[14] = test system: ryegrass, Italian (Italian ryegrass, Lolium multiflorum); assay: Test A postemergence; conditions: Lolium multiflorum, post-emergence, 240 h, Postemergence, read-out: Ryegrass, Italian plant response rating (0 to 100 scale); for pest or weed control at 125 g/ha: 125 g ai/ha, visual rating about 10 d after treatment; for pest or weed control at 31 g/ha: 31 g ai/ha, 0 is no effect, 100 is complete control
In short: as §1

[15] = test system: wheat (Triticum aestivum); assay: Test A postemergence; conditions: Triticum aestivum, post-emergence, 240 h, Postemergence, read-out: Wheat plant response rating (0 to 100 scale); for plant injury at 125 g/ha: 125 g ai/ha, visual rating about 10 d after treatment; for plant injury at 31 g/ha: 31 g ai/ha, 0 is no effect, 100 is complete control
In short: as §1

[16] = test system: barnyardgrass (Echinochloa crus-galli); assay: Test B flooded paddy test; conditions: Echinochloa crus-galli, 250 g ai/ha, Flood; 0 to 100 scale where 0 is no effect and 100 is complete control; read-out: Barnyardgrass plant response rating
In short: (§2)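 Compound goes directly into floodwater once pots are flooded 3 cm above soil, targeting plants at two leaves; the water depth is then held for the test duration. Plants sit 13–15 d in a greenhouse and are rated visually, 100 denoting complete control.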

[17] = test system: ducksalad (Heteranthera limosa); assay: Test B flooded paddy test; conditions: Heteranthera limosa, 250 g ai/ha, Flood; 0 to 100 scale where 0 is no effect and 100 is complete control; read-out: Ducksalad plant response rating
In short: as §2

rice (Oryra sativa) = assay: Test B flooded paddy test; conditions: Oryza sativa, 250 g ai/ha, Flood; 0 to 100 scale where 0 is no effect and 100 is complete control; read-out: Rice plant response rating
In short: as §2

[18] = test system: sedge, umbrella (small-flower umbrella sedge, Cyperus difformis); assay: Test B flooded paddy test; conditions: Cyperus difformis, 250 g ai/ha, Flood; 0 to 100 scale where 0 is no effect and 100 is complete control; read-out: Sedge, Umbrella plant response rating
In short: as §2

Row | SMILES | pest or weed control at 31 g/ha (Kochia (Kochia scoparia) [1]) | pest or weed control at 125 g/ha (Kochia (Kochia scoparia) [1]) | pest or weed control at 31 g/ha [2] | pest or weed control at 125 g/ha [2] | pest or weed control at 31 g/ha [3] | pest or weed control at 125 g/ha [3] | pest or weed control at 31 g/ha [4] | pest or weed control at 125 g/ha [4] | pest or weed control at 31 g/ha [5] | pest or weed control at 125 g/ha [5] | pest or weed control at 31 g/ha [6] | pest or weed control at 125 g/ha [6] | pest or weed control at 125 g/ha [7] | pest or weed control at 31 g/ha [7] | pest or weed control at 125 g/ha (Kochia (Kochia scoparia) [8]) | pest or weed control at 31 g/ha (Kochia (Kochia scoparia) [8]) | pest or weed control at 125 g/ha [9] | pest or weed control at 31 g/ha [9] | pest or weed control at 125 g/ha [10] | pest or weed control at 31 g/ha [10] | also measured
1 | O=C1NC[C@H](c2cccc(C(F)(F)F)c2)[C@H]1C(=O)Nc1ccccc1-n1cncn1 [Compound 1290] | 0% | 0% | 0% | 0% | 0% | 0% | 0% | 0% | 0% | 0% | 0% | 0% | 0% | 0% | 0% | 0% | 0% | 0% | 0% | 0% | plant injury at 125 g/ha (corn (Zea mays)): 0%; plant injury at 31 g/ha (corn (Zea mays)): 0%; pest or weed control at 125 g/ha [11]: 0%; pest or weed control at 31 g/ha [11]: 0%; pest or weed control at 125 g/ha [12]: 0%; pest or weed control at 31 g/ha [12]: 0%; pest or weed control at 125 g/ha [13]: 0%; pest or weed control at 31 g/ha [13]: 0%; pest or weed control at 125 g/ha [14]: 0%; pest or weed control at 31 g/ha [14]: 0%; plant injury at 125 g/ha [15]: 0%; plant injury at 31 g/ha [15]: 0%; pest or weed control at 250 g/ha [16]: 0%; pest or weed control at 250 g/ha [17]: 0%; pest or weed control at 250 g/ha (rice (Oryra sativa)): 10%; pest or weed control at 250 g/ha [18]: 0%
2 | CN1C[C@H](c2ccc(C(F)(F)F)cc2)[C@@H](C(=O)Nc2ccccc2-n2cccn2)C1=O [Compound 1283] | 0% | 0% | 0% | 0% | 0% | 0% | 0% | 0% | 0% | 0% | 0% | 0% | 0% | 0% | 0% | 0% | 0% | 0% | 0% | 0% | plant injury at 125 g/ha (corn (Zea mays)): 0%; plant injury at 31 g/ha (corn (Zea mays)): 0%; pest or weed control at 125 g/ha [11]: 0%; pest or weed control at 31 g/ha [11]: 0%; pest or weed control at 125 g/ha [12]: 0%; pest or weed control at 31 g/ha [12]: 0%; pest or weed control at 125 g/ha [13]: 0%; pest or weed control at 31 g/ha [13]: 0%; pest or weed control at 125 g/ha [14]: 0%; pest or weed control at 31 g/ha [14]: 0%; plant injury at 125 g/ha [15]: 0%; plant injury at 31 g/ha [15]: 0%; pest or weed control at 250 g/ha [16]: 0%; pest or weed control at 250 g/ha [17]: 0%; pest or weed control at 250 g/ha (rice (Oryra sativa)): 0%; pest or weed control at 250 g/ha [18]: 0%
